Reference: US10189782B2, “Derivatives of indole for the treatment of cancer, viral infections and lung diseases” (BIOKINESIS, priority 2012, dated 2019)
Read-outs that look alike come from different tables or passages of the source.

How the values were obtained:
[1] = target: T1, Human recombinant MKlp2 motor domain1-519, His tagged (Homo sapiens, UniProt O95235); test: Microtubule stimulated ATPase activity of the MKlp2 motor domain (Kinesin ELIPA Assay Kit); type: biochemical; settings: read-out: MKIp2 IC50
T1 construct: Human recombinant MKlp2 motor domain1-519, His tagged; His; purchased Cytoskeleton MP05
T1 sequence (O95235 1-519): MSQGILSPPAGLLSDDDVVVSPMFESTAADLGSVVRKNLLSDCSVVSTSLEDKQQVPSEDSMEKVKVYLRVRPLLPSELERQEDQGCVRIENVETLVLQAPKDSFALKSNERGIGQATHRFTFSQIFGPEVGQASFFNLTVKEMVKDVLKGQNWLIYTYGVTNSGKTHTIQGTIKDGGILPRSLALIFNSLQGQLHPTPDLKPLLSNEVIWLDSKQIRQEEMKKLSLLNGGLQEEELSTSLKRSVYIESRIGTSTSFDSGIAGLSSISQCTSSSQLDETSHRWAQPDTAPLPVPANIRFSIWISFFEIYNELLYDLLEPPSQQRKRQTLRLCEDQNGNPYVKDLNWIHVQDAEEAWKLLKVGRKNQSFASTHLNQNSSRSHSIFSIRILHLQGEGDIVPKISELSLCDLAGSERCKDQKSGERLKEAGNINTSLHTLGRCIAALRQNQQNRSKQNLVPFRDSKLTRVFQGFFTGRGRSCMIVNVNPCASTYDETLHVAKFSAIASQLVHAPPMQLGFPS
Summary of the method: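 Microtubule-stimulated ATPase at 22° C, with free phosphate followed in real time by MESG/PNP coupled absorbance at 360 nm. Motor mix in Pipes-NaOH pH 7.0, MgCl2, 30 μM Tx with porcine brain microtubules; reaction started with 5 mM ATP stock at 20% of volume. Kinetic read: 21 readings, 30 s apart.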

NCI-H460 = test: Cytotoxicity on human cancer cells (WST-1), NCI-H460; type: cell-based; settings: NCI-H460 lung cancer cells, WST-1 on D4, read-out: IC50 (μM) NCIH460
Experimental: (§1) Evaluation of Cytotoxicity Effects on Human Cancer Cells
(§2) The effects of the compounds of the invention on the viability of human cancer cells were studied on various human cancer cell lines of differing tissue origins (A549, NCI-H460: lung cancer; MDA-MB-231: breast cancer; HCT-116, HT-29: colon cancer; MIA-PaCa-2: pancreatic cancer; K562: leukaemia). All cell lines were obtained from ATCC or ECACC. Cells were cultured in the culture media described below, under a 37° C., 5% CO2 humidified atmosphere, according to a standard operating procedure.
NCI-H460: RPMI 1640+10% FBS+10 mM HEPES+1 mM Sodium pyruvate+2.5 g/l glucose
(§3) On D0, the cells were plated in 90 μl in 96 wells plates at densities ranging from 500 to 5,000 cells per well.
(§4) Following addition of the test substance the cells were protected from light. The solvents (DMSO and specific control solvent were added at the maximal concentration: 10 μl/well (3 wells/condition)).
(§5) On D4, the Cell Proliferation Reagent WST-1 was added to each well (10 μl/well), according to a standard operating procedure. The cells were then incubated for 30 min to 4 h at 37° C.-5% CO2. After these incubations, the 96-well plates were shaken thoroughly for 1 min with Multiskan® EX apparatus (Thermo Labsystems, France). The absorbence was measured at 450 nm, the reference wavelength being 620 nm. […]

K562 cells = test: Cytotoxicity on human cancer cells (WST-1), K562; type: cell-based; settings: WST-1 on D4, read-out: K562 IC50
Experimental: as §1, §2, §3, §4
(§6) On D4, the Cell Proliferation Reagent WST-1 was added to each well (10 μl/well), according to a standard operating procedure. The cells were then incubated for 30 min to 4 h at 37° C.-5% CO2. After these incubations, the 96-well plates were shaken thoroughly for 1 min with Multiskan® EX apparatus (Thermo Labsystems, France). The absorbence was measured at 450 nm, the reference wavelength being 620 nm. The analysis of the results was performed with the Ascent software 2.6 (Thermo Labsystems, France), Microsoft Excel 2003 and GraphPad Prism 4.03 softwares to give the concentration of the compounds that induces the death of 50% of the cells (IC50).

MDA-MB-231 = test: Cytotoxicity on human cancer cells (WST-1), MDA-MB-231; type: cell-based; settings: MDA-MB-231 breast cancer cells, WST-1 on D4
Experimental: as §1, §2, §3, §4, §6

MIA-PaCa-2 = test: Cytotoxicity on human cancer cells (WST-1), MIA-PaCa-2; type: cell-based; settings: MIA-PaCa-2 pancreatic cancer cells, WST-1 on D4
Experimental: as §1, §2, §3, §4, §6

HCT-116 = test: Cytotoxicity on human cancer cells (WST-1), HCT-116; type: cell-based; settings: HCT-116 colon cancer cells, WST-1 on D4
Experimental: as §1, §2
HCT-116: Mc Coy's 5a+10% FBS+0.5 mM Ultraglutamine
as §3, §4, §5

[2] = Stability studies in human plasma; type: in vitro ADME; settings: for Remaining compound 63 (%) (mean ± SEM, n = 2): Human plasma, 2 μM, 37° C.
Experimental: (§7) Stability Studies in Mouse or Human Plasma The study was to evaluate the stability of the disclosed compounds after incubation in mouse or human plasma and to measure the metabolites formed. For the disclosed compound, a stock solution was prepared at 200 μM in DMSO. This solution was then 100-fold diluted in 1 ml of mouse or human plasma in order to obtain the required concentration of 2 μM. One aliquot of 100 μl was taken (TO) and the remaining solution was incubated at 37° C. in water bath for 60 min, 120 min and 240 min. At the end of each incubation time 100 μl of plasma was taken, 100 μl of acetonitrile containing 0.1% of formic acid were added to each aliquot in order to stop the enzymatic reaction and to precipitate the proteins. Samples was vortexed/mixed and centrifuged 5 min at 16434.6 g (=14000 rpm) (4° C.). After centrifugation, the clear supernatant (at least 150 μl) was transferred into 1.2 ml HPLC glass vials and sealed. Samples were placed into the refrigerated autosampler and 20 μl were injected into a HPLC-MS/MS. The results are expressed with the percentage of test substance remaining by comparing area under specific chromatographic peak of test samples after incubation with area under specific chromatographic peak at TO (Tables 7 and 8 and FIGS. 1 and 2).

[3] = Stability studies in mouse plasma; type: in vitro ADME; settings: for Remaining compound 63 (%) (mean ± SEM, n = 2): Mouse plasma, 2 μM, 37° C.
Experimental: as §7

A549 = test: Cytotoxicity on human cancer cells (WST-1), A549; type: cell-based; settings: A549 lung cancer cells, WST-1 on D4
Experimental: as §1, §2, §3, §4, §5

HT-29 = test: Cytotoxicity on human cancer cells (WST-1), HT-29; type: cell-based; settings: HT-29 colon cancer cells, WST-1 on D4
Experimental: as §1, §2
HT-29: Mc Coy's 5a+10% FBS+0.5 mM Ultraglutamine
as §3, §4, §5

[4] = tested on: human large lung carcinoma NCI-H460 xenografts; test: Anti-tumor activity in nude mice bearing subcutaneous human large cell lung carcinoma NCI-H460 xenografts; type: in vivo
Experimental: In-Vivo Evaluation of Anti-Tumor Activity of Compound 38 in Nude Mice Bearing Subcutaneous Human Large Cell Lung Carcinoma NCI-11460 Xenografts Protocol:
The effects of one compound of the invention were studied on the tumor growth of human cancer cells in nude mice. The human large lung carcinoma NCI-H460 cell line was obtained from ATCC. The induction in nude mice was realized by subcutaneous injection in the right flank of each mouse with 5×10^6 NCI-H460 cells in 200 μl serum-free medium. When the tumor volume reached 80 mm^3, mice were randomized in 2 groups (10 mice/group).
Mice of group 1 were treated by intraperitoneal injection of vehicle (solutol HS15 at 38% in NaCl 0.9%) according to the treatment schedule 1Q1Dx17.
Mice of group 2 were treated by intraperitoneal injection of compound 38 (diluted in solutol HS15 at 38% in NaCl 0.9%) at 37.5 mg/kg according to the treatment schedule 1Q1Dx17.
The tumor volume was recorded twice a week until the end of the experiment.

[5] = tested on: human colon carcinoma HCT-116 xenografts; test: Anti-tumor activity in nude mice bearing subcutaneous human colon carcinoma HCT-116 xenografts; type: in vivo; settings: for Antitumor activity (tumor volume, FIG. 3): HCT-116 xenograft bearing nude mice, cisplatin 4 mg/kg, compound 38 37.5 mg/kg; for Antitumor activity (tumor volume, FIG. 3) / MBWC D 0-D 4 (mean body weight change) / MBWC D 0-D 7 (mean body weight change) / MBWC D 0-D 10 (mean body weight change) / MBWC D 0-D 14 (mean body weight change) / MBWC D 0-D 17 (mean body weight change) / MBWC D 0-D 21 (mean body weight change) / MBWC D 0-D 24 (mean body weight change) / MBWC D 0-D 28 (mean body weight change): i.p.; for MBWC D 0-D 4 (mean body weight change) / MBWC D 0-D 7 (mean body weight change) / MBWC D 0-D 10 (mean body weight change) / MBWC D 0-D 14 (mean body weight change) / MBWC D 0-D 17 (mean body weight change) / MBWC D 0-D 21 (mean body weight change) / MBWC D 0-D 24 (mean body weight change) / MBWC D 0-D 28 (mean body weight change): HCT-116 xenograft nude mice, Cisplatin 4 mg/kg, Cpd 38 37.5 mg/kg, starting MBW 21 g
Experimental: The effects of one compound of the invention were studied on the tumor growth of human cancer cells in nude mice. […] The induction in nude mice was realized by subcutaneous injection in the right flank of each mouse of 10×10^6 HCT-116 cells in 200 μl serum-free medium. When the tumor volume reached 130 mm^3, mice were randomized in to 3 groups (10 mice/group).
Mice of group 2 were treated by intraperitoneal injection of cisplatin (diluted in NaCl 0.9%) at 4 mg/kg according to the treatment schedule 1Q3Dx3.
The body weight and tumor volume of mice were recorded twice a week until the end of the experiment.

[6] = NCI-H460 xenograft nude mice, i.p. 37.5 mg/kg 1Q1Dx17, starting MBW 21 g

Structure (SMILES) | IC50 ([1]; Table 3, 22° C.) | IC50 (NCI-H460) | IC50 (K562 cells; Table 4, K562 leukaemia cells) | IC50 (MDA-MB-231) | IC50 (MIA-PaCa-2) | IC50 (HCT-116) | Antitumor activity (tumor volume, FIG. 3) [5] | MBWC D 0-D 4 (mean body weight change) [5] | MBWC D 0-D 7 (mean body weight change) [5] | MBWC D 0-D 10 (mean body weight change) [5] | MBWC D 0-D 14 (mean body weight change) [5] | MBWC D 0-D 17 (mean body weight change) [5] | MBWC D 0-D 21 (mean body weight change) [5] | MBWC D 0-D 24 (mean body weight change) [5] | MBWC D 0-D 28 (mean body weight change) [5] | other results
COc1ccncc1/C=C(\C#N)c1c[nH]c2ccc(Br)cc12 [Example 5, (Z)-2-(5-bromo-1H-indol-3-yl)-3-(4-methoxypyridin-3-yl)acrylonitrile] | 50 nM | 0.9 µM | 800 nM | 1.7 µM | 0.7 µM | 0.7 µM | – | – | – | – | – | – | – | – | – | –
COc1ccc(C#N)cc1/C=C(\C#N)c1cn(C(=O)CN(C)C)c2ccc(Br)cc12 [Example 63] | – | – | – | – | – | – | – | – | – | – | – | – | – | – | – | IC50 ([1]; Table 6 (prodrugs, formula II)): 10600 nM; IC50 (K562 cells; Table 6 (prodrugs, formula II), K562 cells): 40 nM; Remaining compound 63 (%) (mean ± SEM, n = 2) ([2]; incubation time 0 min): 100.0 ± 0.0%; Remaining compound 63 (%) (mean ± SEM, n = 2) ([2]; incubation time 60 min): 49.2 ± 5.1%; Remaining compound 63 (%) (mean ± SEM, n = 2) ([2]; incubation time 120 min): 27.2 ± 5.4%; Remaining compound 63 (%) (mean ± SEM, n = 2) ([2]; incubation time 240 min): 21.2 ± 11.2%; half-life at 2 μM ([2]; human, plasma): ~60 min; Remaining compound 63 (%) (mean ± SEM, n = 2) ([3]; incubation time 0 min): 100.0 ± 0.0%; Remaining compound 63 (%) (mean ± SEM, n = 2) ([3]; incubation time 60 min): 9.0 ± 0.8%; Remaining compound 63 (%) (mean ± SEM, n = 2) ([3]; incubation time 120 min): 10.7 ± 8.7%; Remaining compound 63 (%) (mean ± SEM, n = 2) ([3]; incubation time 240 min): 4.9 ± 0.5%; half-life at 2 μM ([3]; mouse, plasma): ~33 min
CN(C)c1ccc(C#N)cc1/C=C(\C#N)c1c[nH]c2ccc(Br)cc12 [Example 39, (Z)-3-(2-(5-bromo-1H-indol-3-yl)-2-cyanovinyl)-4-(dimethylamino)benzonitrile] | 200 nM | – | 600 nM | 0.3 µM | 0.2 µM | – | – | – | – | – | – | – | – | – | – | IC50 (A549): 0.5 µM; IC50 (HT-29): 0.3 µM
COc1ccc(C#N)cc1/C=C(\C#N)c1c[nH]c2ccc(Br)cc12 [Example 38, (Z)-3-(2-(5-bromo-1H-indol-3-yl)-2-cyanovinyl)-4-methoxybenzonitrile] | 200 nM | 0.04 µM | 30 nM | 0.07 µM | 0.04 µM | 0.06 µM | Antitumor activity was observed | -1.04 g | -0.76 g | -1.08 g | -1.57 g | -1.58 g | -1.43 g | -1.83 g | -2.54 g | Antitumor activity (tumor volume, FIG. 4) ([4]; NCI-H460 xenograft bearing nude mice, 37.5 mg/kg i.p.): Antitumor activity was observed; MBWC D 0-D 3 (mean body weight change) [4, 6]: -0.96 g; MBWC D 0-D 4 (mean body weight change) [4, 6]: -1.76 g; MBWC D 0-D 7 (mean body weight change) [4, 6]: -1.82 g; MBWC D 0-D 10 (mean body weight change) [4, 6]: -2.12 g; MBWC D 0-D 14 (mean body weight change) [4, 6]: -1.83 g; MBWC D 0-D 17 (mean body weight change) [4, 6]: -1.55 g; Tolerability of treatment ([4]; nude mice bearing NCI-H460 xenograft, 37.5 mg/kg i.p.): well tolerated; Tolerability of treatment ([5]; mouse, in vivo, ip, 37.5 mg/kg): well tolerated
N.N.[Cl][Pt][Cl] [Cisplatin, cisplatin, reference compound] | – | – | – | – | – | – | Antitumor activity was observed | -1.1 g | -2.54 g | -3.33 g | -2.22 g | -1.26 g | -0.38 g | -0.02 g | -0.1 g | –
